# Source: ChEMBL document CHEMBL4706551, “Rational design of new multitarget histamine H receptor ligands as potential candidates for treatment of Alzheimer's disease” (Eur J Med Chem, 2020)
# Calls of active or inactive are those of the source.
# How the values were obtained:
# Mus musculus [1] = test: (§1) Antiallodynic activity in oxaliplatin-induced peripheral neuropathy pain CD-1 mouse model assessed as inhibition of late-phase tactile allodynia by measuring pain sensitivity threshold at 15 mg/kg administered with compound intraperitoneally at 7 days after oxaliplatin stimulation and measured after 30 mins by von Frey test (reference value: 65.3%); format: functional; design: scale not given: the % may be the effect or the level left; conditions: 0.5 h
# Rattus norvegicus [2] = test: Analgesic activity in carragenan-induced thermal hyperalgesia model of Wistar (Krf:WI) rat assessed as latency of nociceptive response for radiant heat stimulation at 30 mg/kg treated prior to carrageenan challenge and measured after 2 hrs (reference value: 63.6%); format: functional
# Rattus norvegicus [3] = test: Antiinflammatory activity against Wistar (Krf:WI) rat assessed as reduction in carragenan-induced paw edema at 22.5 mg/kg treated prior to carrageenan challenge and measured after 2 hrs by plethysmometry relative to control; format: functional
# Rattus norvegicus [4] = test: Antiinflammatory activity against Wistar (Krf:WI) rat assessed as reduction in carragenan-induced paw edema at 22.5 mg/kg treated prior to carrageenan challenge and measured after 1 hr by plethysmometry relative to control; format: functional
# Rattus norvegicus [5] = test: Analgesic activity in Wistar (Krf:WI) rat assessed as inhibition of carrageenan-induced mechanical inflammatory hyperalgesia by measuring paw withdrawl threshold at 30 mg/kg treated prior to carrageenan challenge and measured after 3 to 24 hrs (reference value: 88.4 to 90.9 %); format: functional; design: scale not given: the % may be the effect or the level left; conditions: time 3-24 hrs
# Cholinesterase = Cholinesterase (Homo sapiens, UniProt P06276)
# Description: Inhibition of human BuChE by spectrophotometric based Ellman's method
# Rattus norvegicus [6] = test: Memory enhancement effect in dizocilpine-induced Wistar (Krf:WI) rat model of amnesia assessed as decrease in transfer latency time at 1.25 to 5 mg/kg, ip measured after 30 to 45 mins by elevated plus maze test; format: functional, organism-based; conditions: dose 1.25-5 mg/kg, time 30-45 min
# [7] = molecular target: Acetylcholinesterase (Electrophorus electricus) (UniProt O42275); test: Non-competitive inhibition of Electric eel AChE using ATCI as substrate incubated for 5 mins followed by substrate addition and measured after 5 mins by spectrophotometric based Lineweaver-Burk plot analysis; conditions: time 10.0 min
# Rattus norvegicus [8] = test: Analgesic activity in carragenan-induced thermal hyperalgesia model of Wistar (Krf:WI) rat assessed as latency of nociceptive response for radiant heat stimulation at 30 mg/kg treated prior to carrageenan challenge and measured after 24 hrs (reference value: 83.3%); format: functional
# [9] = molecular target: Acetylcholinesterase (Electrophorus electricus) (UniProt O42275); test: Non-competitive inhibition of Electric eel AChE using ATCI as substrate incubated for 5 mins followed by substrate addition and measured after 5 mins by spectrophotometric based Cornish-Bowden plot analysis; conditions: time 10.0 min
# Mus musculus [10] = test: Analgesic activity in formalin-induced nociception CD-1 mouse model assessed as reduction in pain behaviour by measuring less licking of formalin injected hind paw compound administered intraperitoneally prior to formalin induction and measured during early phase (0 to 5 mins after formalin injection) by formalin test; format: functional; conditions: CD-1, ip, time 0-5 min
# Mus musculus [11] = test: as §1, with “22.5” for “15”; format: functional; design: scale not given: the % may be the effect or the level left; conditions: 0.5 h
# Rattus norvegicus [12] = test: Antiinflammatory activity against Wistar (Krf:WI) rat assessed as reduction in carragenan-induced paw edema at 30 mg/kg treated prior to carrageenan challenge and measured after 24 hrs by plethysmometry relative to control; format: functional
# in vitro = conditions: PAMPA, pH 7.4
# Description: Permeability of compound in PBS buffer assessed as permeability coefficient at pH 7.4 at 200 uM incubated for 5 hrs by PAMPA based LC-MS analysis
# Rattus norvegicus [13] = test: Analgesic activity in carragenan-induced thermal hyperalgesia model of Wistar (Krf:WI) rat assessed as latency of nociceptive response for radiant heat stimulation at 30 mg/kg treated prior to carrageenan challenge and measured after 3 hrs (reference value: 50.3%); format: functional
# [14] = molecular target: T1, Amine oxidase [flavin-containing] B (Homo sapiens, UniProt P27338); test: biochemical; format: cell-based, BTI
# T1 sequence (P27338 whole entry): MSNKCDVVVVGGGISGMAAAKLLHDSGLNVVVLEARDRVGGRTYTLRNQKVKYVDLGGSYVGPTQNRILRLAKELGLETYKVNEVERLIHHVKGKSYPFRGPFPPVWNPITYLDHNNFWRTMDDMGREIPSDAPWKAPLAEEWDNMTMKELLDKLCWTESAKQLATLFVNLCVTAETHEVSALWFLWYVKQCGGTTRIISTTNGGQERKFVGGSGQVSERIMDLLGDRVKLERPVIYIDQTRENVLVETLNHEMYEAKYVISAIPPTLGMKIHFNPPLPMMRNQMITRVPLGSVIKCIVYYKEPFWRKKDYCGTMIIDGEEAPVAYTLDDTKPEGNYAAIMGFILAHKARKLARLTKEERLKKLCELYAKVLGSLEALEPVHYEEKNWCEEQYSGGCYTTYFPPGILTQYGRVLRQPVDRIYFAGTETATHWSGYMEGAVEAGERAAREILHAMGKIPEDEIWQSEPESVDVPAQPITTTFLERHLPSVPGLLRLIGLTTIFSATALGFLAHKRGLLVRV
# Description: Inhibition of recombinant human MAO-B expressed in baculovirus infected BTI cells using p-tyramine as substrate by fluorometric assay
# Sequence of Acetylcholinesterase (Electrophorus electricus) (O42275 24-633 limits assumed): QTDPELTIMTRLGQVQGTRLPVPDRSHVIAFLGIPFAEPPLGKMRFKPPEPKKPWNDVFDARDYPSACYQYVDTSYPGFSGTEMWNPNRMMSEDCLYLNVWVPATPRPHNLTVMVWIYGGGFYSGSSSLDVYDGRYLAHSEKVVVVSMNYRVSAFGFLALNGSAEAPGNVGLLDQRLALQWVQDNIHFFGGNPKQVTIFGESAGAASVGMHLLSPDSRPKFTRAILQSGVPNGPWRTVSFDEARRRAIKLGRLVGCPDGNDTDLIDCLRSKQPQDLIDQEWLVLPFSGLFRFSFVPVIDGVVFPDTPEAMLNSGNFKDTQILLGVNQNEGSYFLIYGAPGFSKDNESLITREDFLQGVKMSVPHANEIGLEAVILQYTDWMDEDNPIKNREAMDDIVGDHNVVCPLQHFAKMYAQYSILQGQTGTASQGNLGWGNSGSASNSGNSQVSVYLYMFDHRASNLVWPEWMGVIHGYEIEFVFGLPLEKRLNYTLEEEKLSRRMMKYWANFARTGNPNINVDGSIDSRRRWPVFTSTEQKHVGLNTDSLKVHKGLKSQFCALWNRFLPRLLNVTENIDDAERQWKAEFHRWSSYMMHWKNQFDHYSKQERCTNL
# Sequence of Cholinesterase (P06276 whole entry): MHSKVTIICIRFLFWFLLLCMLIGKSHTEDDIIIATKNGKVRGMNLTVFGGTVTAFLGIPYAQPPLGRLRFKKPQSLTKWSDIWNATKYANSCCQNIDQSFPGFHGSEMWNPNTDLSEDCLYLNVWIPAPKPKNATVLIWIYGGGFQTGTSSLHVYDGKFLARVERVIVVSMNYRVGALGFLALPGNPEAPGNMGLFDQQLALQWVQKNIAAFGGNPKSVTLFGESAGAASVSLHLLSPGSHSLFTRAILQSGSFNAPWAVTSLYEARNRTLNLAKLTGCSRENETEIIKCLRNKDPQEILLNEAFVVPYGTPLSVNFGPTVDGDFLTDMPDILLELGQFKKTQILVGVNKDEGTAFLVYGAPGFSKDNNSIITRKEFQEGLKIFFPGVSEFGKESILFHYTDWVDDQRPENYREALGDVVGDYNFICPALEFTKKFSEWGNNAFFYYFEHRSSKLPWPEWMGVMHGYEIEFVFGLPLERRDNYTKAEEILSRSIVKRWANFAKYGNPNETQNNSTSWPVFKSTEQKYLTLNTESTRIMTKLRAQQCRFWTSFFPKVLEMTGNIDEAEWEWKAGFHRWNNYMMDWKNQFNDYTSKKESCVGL
smiles,measurement,setting,value
O=c1c2ccccc2oc2ccc(OCCCCCN3CCCCCC3)cc12,Activity,Mus musculus [1],85.9%
same,Activity,Rattus norvegicus [2],102.8%
same,inhibition in vivo at 22.5 mg/kg,Rattus norvegicus [3],32.8%
same,inhibition in vivo at 22.5 mg/kg,Rattus norvegicus [4],36.1%
same,Activity,Rattus norvegicus [5],118%
same,IC50,Cholinesterase,1280 nM
same,Activity,Rattus norvegicus [6],Active
same,inhibition,[7],Active
same,Activity,Rattus norvegicus [8],116%
same,inhibition,[9],Active
same,ED50,Mus musculus [10],24.7 mg/kg
same,Activity,Mus musculus [11],88.5%
same,inhibition in vivo at 30 mg/kg,Rattus norvegicus [12],57.8%
same,"Papp at 5 h, 200 µM",in vitro,5.6 ×10⁻⁶ cm/s
same,Activity,Rattus norvegicus [13],96%
same,IC50,[14],775 nM
